According to PubChem BioAssay AID1259334 (Broad Institute, 2017):
Calls of active or inactive are those of the source. Cut-off read from the data, not from the text of the source: active = AC50 below about 11 µM. Peptide text beside a SMILES is read from it. * marks the point of attachment. Cbz = O=C(OCc1ccccc1)*

What follows are compounds tested on B cell line, TNFa signaling counterscreen reporter (assay: TNFa pathway inhibition counter-screen, B-lineage cells – dose response (AID 1259334);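 note: cells stimulated with TNFa after compound preincubation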).

First: CC(=O)O[C@@H]1C[C@@]2(C)[C@H](c3ccoc3)C[C@H]3O[C@]32[C@]2(C)C(=O)C(=O)C3C(C)(C)C(=O)C=C[C@]3(C)C12 (some centres undefined)
Second: CC1CCOC(=O)C=CC=CC(=O)OC2CC3OC4C5OC5(C)C(O)CC4(COC(=O)C1O)C2(C)C31CO1 (centres undefined)
The AC50 of the first is 36-fold higher: 1.22 µM for the first, 0.0338 µM for the second.

First: Cc1cc(C)cc(N2C(=O)CC(Sc3nnnn3-c3ccccc3)C2=O)c1 (centres undefined)
Second: Cc1ccc2c(=O)c3ccccc3n(CCCN)c2c1C
The AC50 of the first is 4.5-fold lower: 0.728 µM for the first, 3.28 µM for the second.

First: CCCCNC(=O)C1(C)CCN1C(=O)c1cc(-c2cccs2)oc1C (centres undefined)
Second: Cc1ccsc1C(=O)OCC(=O)c1cc(C)n(CC2CCCO2)c1C (centres undefined)
The AC50 of the first is 61-fold higher: 2.59 µM for the first, 0.0426 µM for the second.

`OC1(c2ccc(Cl)c(C(F)(F)F)c2)CCN(CCCC(c2ccc(F)cc2)c2ccc(F)cc2)CC1` and `COc1ccc(S(=O)(=O)Nc2ccc3c(c2)C(=O)N([C@H](C)CO)C[C@@H](C)[C@H](CN(C)Cc2ccc(C(F)(F)F)cc2)OCCCC[C@@H](C)O3)cc1` are within 1.5-fold of each other in AC50: 8.99 µM for the first, 8.15 µM for the second.

Compared with `Cc1cc(C(=O)COC(=O)c2ccco2)c(C)n1Cc1ccco1`, `CC1CC(C)(C)Nc2ccc(OC(=O)c3ccco3)cc21` (centres undefined) is 22-fold higher in AC50: 0.111 µM for the first, 2.42 µM for the second.

`O=C(Nc1ccccc1)N1CC(=O)N2[C@H](CO)[C@@H](c3ccc(C#CC4CCCCC4)cc3)[C@H]2C1` and `COc1ccc(C#Cc2ccc([C@H]3[C@@H](CO)N4CCCCN(S(=O)(=O)c5cn(C)cn5)C[C@H]34)cc2)cc1` are within 1.5-fold of each other in AC50: 11.5 µM for the first, 8.82 µM for the second.

Going from `CC(C)C[C@@H](C=O)NC(=O)[C@H](CC(C)C)NC(=O)[C@H](CC(C)C)NC(=O)OCc1ccccc1` (Cbz-Leu-Leu-Leu-aldehyde) to `CC(C)OC(=O)c1cn(Cc2c(F)cccc2F)c2sc(-c3ccc(NC(=O)C(C)C)cc3)c(CN(C)Cc3ccccc3)c2c1=O`, the AC50 rises from 3.82 µM to 8.24 µM (2.2-fold).

`C[C@H](CO)N1C[C@H](C)[C@@H](CN(C)Cc2cccc(C(F)(F)F)c2)OCc2ccccc2-c2c(n(C)c3ccccc23)C1=O` and `Cc1ccc(OC(=O)N(C)C[C@@H]2OCc3ccccc3-c3c(n(C)c4ccccc34)C(=O)N([C@@H](C)CO)C[C@H]2C)cc1` are within 1.5-fold of each other in AC50: 8.03 µM for the first, 7.67 µM for the second.

Going from `CC12CCC3C(CCC4(O)CC(O)CCC34C=NO)C1(O)CCC2C1=COC(=O)C1` (centres undefined) to `CC(C)[C@H](N)C(=O)N[C@H]1CCC2C3CC=C4C[C@@H](O)CC[C@]4(C)C3CC[C@@]21C` (some centres undefined), the AC50 rises from 0.6 µM to 1.96 µM (3.3-fold).

First: CCN1/C(=C/c2sc(-c3ccccc3C)c[n+]2C)Sc2ccccc21
Second: C[n+]1c2n(c3ccccc31)N=C(c1ccc(-c3ccccc3)cc1)CS2
The AC50 of the first is 2.2-fold lower: 0.574 µM for the first, 1.25 µM for the second.

Compared with `O=C(/C=C/c1ccccc1)CC(O)(c1ccccc1)C(F)(F)C(F)F` (centres undefined), `COc1ccc(/C=C/C(=O)Nc2ccccc2C(=O)O)cc1OC` is 1.7-fold higher in AC50: 5.06 µM for the first, 8.81 µM for the second.

Going from `C=C1C(=O)O[C@H]2[C@H]1CC/C(C)=C/CC[C@@]1(C)O[C@@H]21` to `CC1CCCC=CC2CC(OC(=O)CN(C)C)CC2C(O)C=CC(=O)O1` (centres undefined), the AC50 falls from 3.54 µM to 0.0509 µM (70-fold).

First: Cc1ccnc(NC(=O)c2ccc(OCC3CCCO3)cc2)c1 (centres undefined)
Second: O=C(Nc1nc2ccccc2s1)c1ccc(OCC2CCCO2)cc1 (centres undefined)
The AC50 of the first is 2-fold lower: 5.1 µM for the first, 10.2 µM for the second.

First: CC(C)(C)[C@H](N)C(=O)N[C@H]1CCC2C3CC=C4C[C@@H](O)CC[C@]4(C)C3CC[C@@]21C (some centres undefined)
Second: CC1=C(O)C(=O)C=C2C1=CC=C1C2(C)CCC2(C)C3CC(C)(C(=O)O)CCC3(C)CCC12C (centres undefined)
The AC50 of the first is 9.9-fold higher: 4.1 µM for the first, 0.414 µM for the second.

Going from `CC1CC(C)C(=O)C(C(O)CC2CC(=O)NC(=O)C2)C1` (centres undefined) to `Cc1noc(C)c1S(=O)(=O)N(C)C[C@@H]1OCc2ccccc2-c2c(n(C)c3ccccc23)C(=O)N([C@@H](C)CO)C[C@@H]1C`, the AC50 rises from 0.115 µM to 10.2 µM (89-fold).

`C[C@H]1CN([C@@H](C)CO)C(=O)Cc2cc(NS(=O)(=O)c3cccs3)ccc2O[C@@H]1CN(C)Cc1ccc(Cl)c(Cl)c1` and `CC(OC(=O)c1cc(Br)ccc1O)C(=O)Nc1ccc(S(=O)(=O)N2CCCC2)cc1` (centres undefined) are within 1.5-fold of each other in AC50: 7.19 µM for the first, 7.82 µM for the second.

First: c1ccc(-c2ccc(-c3ccccn3)nn2)nc1
Second: CNc1c2cccc(C)c2nc2c(C(=O)NCCN(C)C)cccc12
The AC50 of the first is 12-fold higher: 6.99 µM for the first, 0.583 µM for the second.

Going from `O=C(c1nnsc1S(=O)(=O)c1ccc(Cl)cc1)N1CCOCC1` to `COc1cc2cc(C(=O)N3CC(COS(C)(=O)=O)c4ccc(O)cc43)[nH]c2c(OC)c1OC` (centres undefined), the AC50 falls from 2.07 µM to 0.00612 µM (340-fold).

Work on `COC(=O)C1=C(C(=O)OC)C(C(=O)OC)C(C(=O)OC)C(C(=O)OC)(C(=O)OC)C(C(=O)OC)=C1C(=O)OC` (centres undefined) yielded an AC50 of 4.62 µM.

`O=C(CNC(=O)c1ccco1)Nc1ccc2c(c1)OCCO2` was tested, and the AC50 was > 20 µM (inactive).
In the case of `COc1ccc(S(=O)(=O)N(C)C[C@H]2Oc3ccc(NC(=O)Nc4ccc(C(F)(F)F)cc4)cc3C(=O)N([C@@H](C)CO)C[C@@H]2C)cc1`, the AC50 is reported as > 20 µM (inactive).
With `CCC(=O)O[C@]1(C(=O)CCl)[C@@H](C)C[C@H]2[C@@H]3CCC4=CC(=O)C=C[C@]4(C)[C@@]3(F)[C@@H](O)C[C@@]21C` the AC50 was > 20 µM (inactive).
For `Cc1noc(C)c1S(=O)(=O)Nc1ccc2c(c1)C(=O)N([C@H](C)CO)C[C@@H](C)[C@H](CN(C)C(=O)Nc1cccc3ccccc13)OCCCC[C@@H](C)O2`, the AC50 was > 20 µM (inactive).
`O=C1C(O)CC2c3ccccc3CC3(CCCC3)N12` (centres undefined) was tested, and the AC50 was > 20 µM (inactive).
For `c1ccc2c(c1)OCC(C1=NCCN1)O2` (centres undefined), the AC50 was > 20 µM (inactive).
`N#C[C@@H]1[C@H](c2ccc(C#CC3CCCCC3)cc2)[C@@H](CO)N1C(=O)Nc1ccc(F)cc1` was tested, and the AC50 was > 20 µM (inactive).
